Experimental data reported in patent US20150141274A1, “Methods and Compositions for Activity Dependent Transcriptome Profiling” (The Rockefeller University, priority 2012, published 2015).
No end group written: not given here.

Legend:
pS6 and c-fos = assay type: in vivo, mouse; conditions: intraperitoneal: cocaine 30 mg/kg 60 min, kainate 12.5 mg/kg 120 min, haloperidol 2 mg/kg 30 min, olanzapine 20 mg/kg 120 min, clozapine 10 mg/kg 45 min; ghrelin
Method: (§1) Wild-type male C57B6/J mice from Jackson laboratories were maintained on a 8 pm:8 am light-dark schedule and were 9-13 weeks old at the time of sacrifice. All dissections were performed between noon and 2 pm except as noted. For osmotic stimulation experiments, animals were given an intraperitoneal injection of 2M NaCl (350 μL), water was removed from the cage, and mice were sacrificed 120-140 min later. For fasting experiments, animals were transferred to a new cage without food at 5 pm and then sacrificed at 8 am the following morning. Control mice were fed ad libitum and sacrificed at the same time. For ghrelin experiments, animals were given an intraperitoneal injection of ghrelin (66 μg, Tocris), food was removed from the cage, and animals were dissected 70 min later. For scheduled feeding, animals were allowed access to food between noon and 3 pm each day, and then sacrificed between 1:45 and 2 pm after a minimum of 10 days on this schedule.

K-opioid receptor (KOR) = biological target: T1, K-opioid receptor (KOR) (Mus musculus, UniProt P33534); assay: Food intake and body weight after treatment with KOR antagonists during scheduled or ad libitum feeding; assay type: in vivo
T1 construct: An intraperitoneal injection of either a selective KOR antagonist (JDTic) or vehicle was administered to mice; from tissue; host or cells: whole animal (wild-type male C57B6/J mice), i.p. or intracerebroventricular dosing
T1 sequence (P33534 whole entry): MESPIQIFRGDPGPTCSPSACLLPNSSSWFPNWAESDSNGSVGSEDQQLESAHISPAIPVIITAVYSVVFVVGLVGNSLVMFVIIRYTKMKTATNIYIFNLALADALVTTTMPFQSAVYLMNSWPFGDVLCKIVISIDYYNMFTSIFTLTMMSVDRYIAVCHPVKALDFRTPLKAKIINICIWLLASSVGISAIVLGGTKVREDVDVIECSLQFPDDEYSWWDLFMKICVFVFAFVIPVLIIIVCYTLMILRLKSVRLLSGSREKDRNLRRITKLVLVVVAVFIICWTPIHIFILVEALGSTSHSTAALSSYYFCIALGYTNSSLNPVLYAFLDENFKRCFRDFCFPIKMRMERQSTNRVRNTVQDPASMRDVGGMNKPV
Method: as §1
JDTic was either delivered by intraperitoneal injection (10 mg/kg) or was reconstituted in PBS to a concentration of 1 mg/mL and 5 ul was delivered via Hamilton syringe into the lateral ventricle using coordinates: L/M 1.0 mm from Bregma, A/P −0.4 mm from Bregma and 2.5 mm beneath the cortex. Norbinaltorphimine was delivered at the same dose and coordinates as described above.

hypothalamus [1] = assay: Phosphorylated ribosome profiling (Taqman array) of hypothalamus after salt challenge; assay type: in vivo, mouse; conditions: 2M NaCl 350 μL intraperitoneal, 120-140 min; 3P peptide
Method: (§2) Mice were sacrificed by cervical dislocation. […] Homogenates were transferred to a microcentrifuge tube and clarified at 2000×g for 10 min at 4° C. […] This solution was mixed and then clarified at 17000×g for 10 min at 4° C. The resulting high-speed supernatant was transferred to a new tube, and 20 μL of a 0.05 mM stock solution of 3P peptide was added. A 20 μL aliquot of this solution was removed, transferred to a new tube containing 350 μL buffer RLT (Qiagen), and stored at −80° C. for purification as input RNA. The remainder was used for immunoprecipitation.
(§3) Immunoprecipitations were allowed to proceed 10 min at 4° C. […] During the third wash the beads were transferred to a new tube and allowed to incubate at RT for 10 min. […] RNA assessed using an Agilent 2100 bioanalyzer.
as §1, with “For fasting experiments, animals were transferred to a new cage without food at 5 pm and then sacrificed at 8 am the following morning.” left out
(§4) Taqman probes were designed and ordered for quantification of each of the 225 genes described in Table 4. Probes were distributed to 96-well plates in duplicate, cDNA was prepared using the Quantitect RT kit (Qiagen), and reactions were run using the Taqman Gene Expression Master Mix (ABI) on an Applied Biosystems 7900HT system. For each experiment (stimulus or control), the abundance of each gene in the input RNA and in the pS6 immunoprecipitated RNA was measured in duplicate. The mean RNA abundance was determined, normalized to an rpL27 probe that was present in every plate, and the ratio (IP/Input) was calculated. The experiment was repeated multiple times for each stimulus or control, these values were averaged, and the differential enrichment was calculated (ratio of (IP/Input) stimulus over control). Note that the differential enrichment was calculated because the neuronal markers that become enriched or depleted specifically in response to the stimulus was of interest. Normalization to the control group accounts for the fact that each neural marker has a somewhat different enrichment at baseline, reflecting the fact that each cell-population has somewhat different level of basal pS6. Follow-up analysis focused in every case on the most highly enriched genes in the experiment, which were validated directly by histology.

pS6 = assay: Hypothalamic immunostaining for pS6; assay type: in vivo, mouse
Method: as §1, with “For fasting experiments, animals were transferred to a new cage without food at 5 pm and then sacrificed at 8 am the following morning.” left out
Mice were sacrified at the indicated times by isoflurane anesthesia followed by transcardial perfusion with PBS and then 10% formalin. Brains were dissected, incubated in 10% formalin overnight at 4° C., and 40 μm sections were prepared on a vibratome. Free floating sections were blocked for 1 h at room temperature in buffer E (PBS, 0.1% Triton, 2% goat serum, 3% BSA), and then stained overnight at 4° C. with primary antibodies at the indicated concentrations. For pS6 244 staining, the pS6 240/244 polyclonal antibody (Cell Signaling, #2215) was combined with the 3P peptide (250 nM final concentration). […]
Images were acquired using an LSM510 laser scanning confocal microscope. pS6 was quantified in specific neuronal populations as follows. […] The surfaces corresponding to each labelled cell in the field (e.g. each POMC cell) were reconstructed using Imaris software (Bitplane), and the mean intensity in the pS6 channel within the volume bounded by the surface of each labelled cell was recorded. […] In cases where the absolute number of pS6 positive cells within an anatomic region was desired (e.g. Pdyn neurons in the DMH), the number of pS6 positive and negative cells was counted manually.

hypothalamus [2] = conditions: 2 M NaCl 15 μL/g intraperitoneal, 2 hours; pS6 240/244 antibody without 3P peptide
Method: Magnetic beads were loaded by incubating 150 μL of Protein A Dynabeads (Invitrogen) with 4 μg of pS6 antibody in Buffer A (10 mM HEPES [pH 7.4], 150 mM KCl, 5 mM MgCl2, 1% NP40, 0.05% IgG-free BSA). Loading was allowed to proceed at 4° C. for a minimum of 1 day. Beads were washed three times with Buffer A immediately before use.
Mice were sacrificed by cervical dislocation. The hypothalamus was rapidly dissected in Buffer B on ice (1×HBSS, 4 mM NaHCO3, 2.5 mM HEPES [pH 7.4], 35 mM Glucose, 100 μg/mL cycloheximide). […] Samples were homogenized three times at 250 rpm and nine times at 750 rpm on a variable-speed homogenizer (Glas-Col) at 4° C. Homogenates were transferred to a microcentrifuge tube and clarified for 10 minutes at 4000 rpm at 4° C. The supernatant was then removed and transferred to a new tube on ice. […]
Immunoprecipitations were allowed to proceed for 30-60 min at 4° C. […] RNA quality was quantified using a NanoDrop spectrophotometer and the quality assessed using an Agilent 2100 bioanalyzer. […] For Taqman analysis, cDNA was prepared using the Sensiscript RT kit (Qiagen) and analyzed using an Applied Biosystems 7900HT system. […]
The ratio of the signal intensities for each gene in the IP (immunoprecipitation) and input was calculated for each experiment, these values were averaged across replicates, and all genes were sorted according to their fold-enrichment.

hypothalamus [3] = assay: Phosphorylated ribosome profiling (Taqman array) of hypothalamus after ghrelin injection; assay type: in vivo, mouse; conditions: ghrelin 66 μg intraperitoneal, 70 min
Method: as §2, §3
Wild-type male C57B6/J mice from Jackson laboratories were maintained on a 8 pm:8 am light-dark schedule and were 9-13 weeks old at the time of sacrifice. All dissections were performed between noon and 2 pm except as noted. […]
as §4, with “Normalization to the control group accounts for the fact that each neural marker has a somewhat different enrichment at baseline, reflecting the fact that each cell-population has somewhat different level of basal pS6. Follow-up analysis focused in every case on the most highly enriched genes in the experiment, which were validated directly by histology.” left out

[4] = biological target: phosphorylated ribosomal protein S6 (mouse), in ribosomes of cell lysates (Mus musculus) (UniProt P62754); assay: immunoprecipitation of ribosomes from MEF lysates, recovered RNA quantified by Bioanalyzer
[5] = biological target: phosphorylated ribosomal protein S6 (mouse), in ribosomes of cell lysates (Mus musculus) (UniProt P62754); assay: immunoprecipitation of ribosomes from MEF lysates, recovered RNA quantified
[6] = ad libitum fed animals, intraperitoneal injection
[7] = scheduled feeding, intraperitoneal injection 10 mg/kg, single dose

O=C(CCCN1CCC(O)(c2ccc(Cl)cc2)CC1)c1ccc(F)cc1 [haloperidol] was tested, and the “co-localization of pS6 and c-fos in brain regions” value (“co-localization of pS6 and c-fos” below) (pS6 and c-fos) was “induce co-localization of pS6 and c-fos”.

With C=C(C)[C@H]1CN[C@H](C(=O)O)[C@H]1CC(=O)O [kainate] the “co-localization of pS6 and c-fos” value (pS6 and c-fos) was “induce co-localization of pS6 and c-fos”.

In the case of Oc1ccc2c3c1O[C@H]1c4[nH]c5c(c4C[C@@]4(O)[C@@H](C2)N(CC2CC2)CC[C@]314)C[C@@]1(O)[C@H]2Cc3ccc(O)c4c3[C@@]1(CCN2CC1CC1)[C@H]5O4 [norbinaltorphimine], the “increase in food intake” value (K-opioid receptor (KOR); scheduled feeding, intracerebroventricular injection) is reported as “more than 50%”.

[Cl-].[Na+] [salt, NaCl] was tested, and the “enrichment of Cxcl1 in pS6 immunoprecipitates, salt challenged relative to controls” value (hypothalamus [1]) was 13 fold, the “enrichment of Fezf2 in pS6 immunoprecipitates, salt challenged relative to controls” value (hypothalamus [1]) was 5.5 fold and the “enrichment of FosB in pS6 immunoprecipitates, salt challenged relative to controls” value (hypothalamus [1]) was 38 fold. The “enrichment of Nhlh2 in pS6 immunoprecipitates, salt challenged relative to controls” value (hypothalamus [1]) was 7.3 fold, the “enrichment of Sim1 in pS6 immunoprecipitates, salt challenged relative to controls” value (hypothalamus [1]) was 4.0 fold and the “enrichment of corticotropin releasing hormone (Crh) in pS6 immunoprecipitates, salt challenged relative to controls” value (hypothalamus [1]) was 10 fold. The “enrichment of galanin (Gal) in pS6 immunoprecipitates, salt challenged relative to controls” value (hypothalamus [1]) was 4.6 fold, the “enrichment of oxytocin (Oxt) in pS6 immunoprecipitates, salt challenged relative to controls” value (hypothalamus [1]) was 14 fold and the “enrichment of prodynorphin (Pdyn) in pS6 immunoprecipitates, salt challenged relative to controls” value (hypothalamus [1]) was 3.4 fold. The “enrichment of relaxin-1 (Rln1) in pS6 immunoprecipitates, salt challenged relative to controls” value (hypothalamus [1]) was 6.1 fold, the “enrichment of somatostatin (Sst) in pS6 immunoprecipitates, salt challenged relative to controls” value (hypothalamus [1]) was 3.1 fold and the “enrichment of urocortin-3 (Ucn3) in pS6 immunoprecipitates, salt challenged relative to controls” value (hypothalamus [1]) was 5.3 fold. The “enrichment of vasopressin (Avp) in pS6 immunoprecipitates, salt challenged relative to controls” value (hypothalamus [1]) was 49 fold, the “pS6 staining in PVN, SON and median eminence of the hypothalamus” value (pS6; salt challenge, 2M NaCl versus vehicle (PBS), pS6 244 staining) was “induced an increase in pS6” and the “enrichment of Avp in pS6 IPs from salt challenged animals relative to controls, by Taqman” value (hypothalamus [2]) was 7.9 fold.

For JDTic, the body weight (K-opioid receptor (KOR); [6]) was “no impact”, the food intake (K-opioid receptor (KOR); [6]) was “no impact” and the “body weight relative to the control group” value (K-opioid receptor (KOR); [7]) was “more rapid regain”. The “food intake relative to the control group” value (K-opioid receptor (KOR); [7]) was “increased more rapidly”.

In the case of “ghrelin (GSSFLSPEHQRVQQRKESKKPPAKLQPR; not fully specified (residue 3); ends and bridges not checked; UniProt Q9UBU3 24-51, looked up) [the hormone ghrelin (Tocris)]”, the “pS6 levels in the compact part of the DMH” value (pS6; ghrelin IP injection, 1 h) is reported as “did not increase”, the “pS6 staining in the Arc” value (pS6; ghrelin IP injection, 1 h) is reported as “induced strong pS6” and the “co-localization of pS6 and c-fos” value (pS6 and c-fos) is reported as “extensive co-localization of c-fos and pS6”. The “enrichment of AgRP in pS6 immunoprecipitates relative to controls” value (hypothalamus [3]) was 27 fold, the “enrichment of NPY in pS6 immunoprecipitates relative to controls” value (hypothalamus [3]) was 21 fold and the “enrichment of the ghrelin receptor in pS6 immunoprecipitates relative to controls” value (hypothalamus [3]) was 7.1 fold.

With “rabbit anti-pS6 240/244 polyclonal antibody (Cell Signaling #2215)” the fold more RNA isolated in immunoprecipitate, wild-type MEFs against S6^S5A controls [4] was 100 fold and the fold more RNA associated with immunoprecipitate, wild-type MEFs against S6S5A cells [5] was 100 fold.
